Active and inactive are the calls of the source. Cut-off read from the data, not from the text of the source: actives have a measured IC50 and inactives only a lower limit.
Target: Envelope glycoprotein gp160 (Human immunodeficiency virus 1, UniProt Q6QLK5)
Assay: cell-free HIV fusion peptide-binding blockers – biochemical, uHTS, fluorescence dequenching, […] (AID 1986)

Envelope glycoprotein gp160, sequence (Q6QLK5 whole entry, the tested form may be a part): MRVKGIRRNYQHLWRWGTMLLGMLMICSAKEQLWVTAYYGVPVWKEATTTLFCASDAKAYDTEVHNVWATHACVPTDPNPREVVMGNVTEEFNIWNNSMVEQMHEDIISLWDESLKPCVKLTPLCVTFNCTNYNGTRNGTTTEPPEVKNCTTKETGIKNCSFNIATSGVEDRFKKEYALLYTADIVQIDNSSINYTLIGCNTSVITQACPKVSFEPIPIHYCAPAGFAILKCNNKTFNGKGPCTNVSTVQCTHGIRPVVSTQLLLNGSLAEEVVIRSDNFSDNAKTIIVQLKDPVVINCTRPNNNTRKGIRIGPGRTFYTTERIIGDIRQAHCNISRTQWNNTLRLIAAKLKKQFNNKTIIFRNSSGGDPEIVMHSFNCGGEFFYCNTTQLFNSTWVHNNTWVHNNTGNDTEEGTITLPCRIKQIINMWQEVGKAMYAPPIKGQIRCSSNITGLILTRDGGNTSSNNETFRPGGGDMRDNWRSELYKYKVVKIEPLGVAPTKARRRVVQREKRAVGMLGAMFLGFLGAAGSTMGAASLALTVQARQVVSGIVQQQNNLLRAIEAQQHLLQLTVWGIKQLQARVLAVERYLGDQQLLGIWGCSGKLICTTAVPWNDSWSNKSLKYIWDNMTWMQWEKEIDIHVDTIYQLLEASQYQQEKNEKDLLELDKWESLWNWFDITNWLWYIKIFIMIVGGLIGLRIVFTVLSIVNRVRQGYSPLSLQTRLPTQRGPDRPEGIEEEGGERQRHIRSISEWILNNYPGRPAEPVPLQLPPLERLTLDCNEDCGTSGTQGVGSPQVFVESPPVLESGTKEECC

**Q.** Cc1oc2c(cc(NS(=O)(=O)c3ccc(C(C)C)cc3)c3ccccc32)c1C(=O)O was tested. Which IC50 did it give?
**A.** 14.8 µM (active)

**Q.** For N#Cc1c(SCC(=O)Nc2nc3ccc(Br)cc3s2)sc2c(O)cc(=O)[nH]c12, which IC50 is on record?
**A.** 11 µM (active)

**Q.** For O=C(CCN1C(=O)/C(=C/c2cccs2)SC1=S)Nc1ccc(C(=O)O)c(O)c1, which IC50 is on record?
**A.** 11.6 µM (active)

**Q.** For COc1cccc(OCCOc2ccc(/C=C3\C(=N)N4N=C(S(C)(=O)=O)SC4=NC3=O)cc2OC)c1, which IC50 is on record?
**A.** 43.8 µM (active)

**Q.** Which IC50 does the source give for O=C(O)c1cc(-c2ccc(/C=N/Nc3ccc(Cl)cc3)o2)ccc1Cl here?
**A.** 24.1 µM (active)
